Laboratory results published in PubChem BioAssay AID248 (DTP/NCI, 2004).
Toxic doses and inconclusive results are not listed. Cut-off read from the data, not from the text of the source: active = T/C of 150% or more; inactive = T/C below 125%.

System: L1210 leukemia ip in BDF1 mice, survival T/C
Experiment: NCI In Vivo Anticancer Drug Screen. Data for tumor model L1210 Leukemia (intraperitoneal) in B6D2F1 (BDF1) mice
Conditions: endpoint: mean survival time, higher = longer survival
Procedure, shortened: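 Ratio derived from survival: compound-dosed mice over vehicle-dosed mice, all bearing a transplantable tumor.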

[1] = dose: 100.0 mg/kg/injection, schedule: Q01DX009 (ip), vehicle: saline with Tween-80
[2] = dose: 100.0 mg/kg/injection, schedule: Q04DX003 (ip), vehicle: saline with Tween-80
[3] = dose: 200.0 mg/kg/injection, schedule: Q01DX009 (ip), vehicle: saline with Tween-80
[4] = dose: 200.0 mg/kg/injection, schedule: Q04DX003 (ip), vehicle: saline with Tween-80
[5] = dose: 400.0 mg/kg/injection, schedule: Q04DX003 (ip), vehicle: saline with Tween-80
[6] = dose: 100.0 mg/kg/injection, schedule: Q04DX003 (ip), vehicle: saline sonified
[7] = dose: 200.0 mg/kg/injection, schedule: Q04DX003 (ip), vehicle: saline sonified
[8] = dose: 400.0 mg/kg/injection, schedule: Q04DX003 (ip), vehicle: saline sonified
[9] = dose: 100.0 mg/kg/injection, schedule: Q04DX003 (ip), vehicle: saline
[10] = dose: 200.0 mg/kg/injection, schedule: Q04DX003 (ip), vehicle: saline
[11] = dose: 100.0 mg/kg/injection, schedule: Q01DX009 (ip), vehicle: Klucel (hydroxypropylcellulose) (HPC)
[12] = dose: 200.0 mg/kg/injection, schedule: Q01DX009 (ip), vehicle: Klucel (hydroxypropylcellulose) (HPC)
[13] = dose: 400.0 mg/kg/injection, schedule: Q01DX009 (ip), vehicle: Klucel (hydroxypropylcellulose) (HPC)
[14] = dose: 100.0 mg/kg/injection, schedule: Q04DX002 (ip), vehicle: Klucel (hydroxypropylcellulose) (HPC)
[15] = dose: 200.0 mg/kg/injection, schedule: Q04DX002 (ip), vehicle: Klucel (hydroxypropylcellulose) (HPC)
[16] = dose: 100.0 mg/kg/injection, schedule: Q04DX003 (ip), vehicle: Klucel (hydroxypropylcellulose) (HPC)
[17] = dose: 200.0 mg/kg/injection, schedule: Q04DX003 (ip), vehicle: Klucel (hydroxypropylcellulose) (HPC)
[18] = dose: 400.0 mg/kg/injection, schedule: Q04DX003 (ip), vehicle: Klucel (hydroxypropylcellulose) (HPC)

Measured: T/C

Oc1cccnc1CN1CCOCC1
inactive: [1] 96 % of control | [2] 97 % of control | [3] 89 % of control | [4] 108 % of control | dose: 400.0 mg/kg/injection, schedule: Q01DX009 (ip), vehicle: saline with Tween-80 96 % of control | [5] 100 % of control

COc1cc(OC(C)=O)c2ncccc2c1OC(C)=O
inactive: dose: 100.0 mg/kg/injection, schedule: Q01DX001 (ip), vehicle: saline 94 % of control

CCOC(=O)C(Br)c1cccc(OC)c1 (centres undefined)
inactive: dose: 100.0 mg/kg/injection, schedule: Q01DX009 (ip), vehicle: saline sonified 107 % of control | [6] 117 % of control | dose: 132.0 mg/kg/injection, schedule: Q04DX003 (ip), vehicle: saline sonified 104 % of control | dose: 200.0 mg/kg/injection, schedule: Q01DX009 (ip), vehicle: saline sonified 96 % of control | [7] 96 % of control | dose: 300.0 mg/kg/injection, schedule: Q04DX003 (ip), vehicle: saline sonified 89 % of control | dose: 400.0 mg/kg/injection, schedule: Q01DX009 (ip), vehicle: saline sonified 98 % of control | [8] 106 % of control

O=CC1=C(Cl)c2ccccc2SC1
inactive: dose: 100.0 mg/kg/injection, schedule: Q01DX001 (ip), vehicle: other 93 % of control | dose: 200.0 mg/kg/injection, schedule: Q01DX001 (ip), vehicle: other 98 % of control

CCCCCCCCc1ccc(NC(N)=S)cc1
inactive: dose: 3.12 mg/kg/injection, schedule: Q01DX009 (ip), vehicle: saline 104 % of control | dose: 6.25 mg/kg/injection, schedule: Q01DX009 (ip), vehicle: saline 107 % of control | dose: 12.5 mg/kg/injection, schedule: Q01DX009 (ip), vehicle: saline with Tween-80 92 % of control | dose: 12.5 mg/kg/injection, schedule: Q01DX009 (ip), vehicle: saline 111 % of control

O=C(O)/C=C/C(=O)NNC(=O)/C=C/C(=O)O
inactive: [2] 98 % of control | [4] 98 % of control

NC(CSS(=O)(=O)O)=NCC12CC3CC(CC(C3)C1)C2
inactive: dose: 12.5 mg/kg/injection, schedule: Q04DX002 (ip), vehicle: Klucel (hydroxypropylcellulose) (HPC) 104 % of control | dose: 25.0 mg/kg/injection, schedule: Q04DX002 (ip), vehicle: Klucel (hydroxypropylcellulose) (HPC) 95 % of control

CCOc1ccc(C(/C(Cl)=N/O)C(Cl)(Cl)Cl)cc1 (centres undefined)
inactive: dose: 12.5 mg/kg/injection, schedule: Q04DX003 (ip), vehicle: acetone 93 % of control | dose: 25.0 mg/kg/injection, schedule: Q04DX003 (ip), vehicle: acetone 97 % of control | dose: 50.0 mg/kg/injection, schedule: Q04DX003 (ip), vehicle: acetone 92 % of control

COc1ccc(NC(=O)/C=C/C(=O)Nc2ccc(OC)cc2)cc1
inactive: [2] 100 % of control | [4] 112 % of control | [5] 100 % of control

CN(C)CC(=O)N/N=C\c1ccc([N+](=O)[O-])s1
inactive: [9] 91 % of control | [10] 93 % of control

Cc1ccc(NC(=O)OCC2CC3C=CC2C3)cc1NC(=O)OCC1CC2C=CC1C2 (centres undefined)
inactive: [11] 87 % of control | [12] 90 % of control | [13] 90 % of control

CCCCS(=O)(=O)CCN1C(=O)C2C3CCC(O3)C2C1=O (centres undefined)
inactive: [14] 98 % of control | [15] 123 % of control | dose: 400.0 mg/kg/injection, schedule: Q04DX002 (ip), vehicle: Klucel (hydroxypropylcellulose) (HPC) 107 % of control

CC(C)C(NC(=O)CI)C(=O)Nc1ccc(C(=O)O)c(O)c1 (centres undefined)
inactive: [16] 108 % of control | [17] 94 % of control

ONC12CCCCC1(Cl)CCCC2 (centres undefined)
inactive: dose: 150.0 mg/kg/injection, schedule: Q01DX001 (ip), vehicle: saline 94 % of control

Cc1ccc(S(=O)(=O)N/N=C(/c2ccccc2)c2cccs2)cc1
inactive: [1] 102 % of control | [2] 90 % of control | [3] 91 % of control | [4] 96 % of control | [5] 96 % of control

O=C(c1ccccc1)N1CC2CC3OC3c3cccc1c32 (centres undefined)
inactive: [2] 88 % of control | [4] 92 % of control

CCOC(=O)/C(O)=C(\C=N\C(N)=O)C(=O)OCC
inactive: [6] 93 % of control | [7] 103 % of control | [8] 95 % of control

NC(=O)c1[nH]cnc1/N=N/N(CCF)CCF
active: dose: 15.0 mg/kg/injection, schedule: Q01DX009 (ip), vehicle: other 153 % of control
inactive: dose: 1.87 mg/kg/injection, schedule: Q01DX009 (ip), vehicle: other 106 % of control | dose: 3.75 mg/kg/injection, schedule: Q01DX009 (ip), vehicle: other 123 % of control | dose: 10.0 mg/kg/injection, schedule: Q01DX001 (ip), vehicle: other 106 % of control

NC(CCl)=NCCCN1CCOCC1
inactive: dose: 100.0 mg/kg/injection, schedule: Q04DX002 (ip), vehicle: saline 114 % of control | dose: 200.0 mg/kg/injection, schedule: Q04DX002 (ip), vehicle: saline 97 % of control

CCOC(=O)Nc1cc2ccncc2c2sc3ccccc3c12
inactive: dose: 100.0 mg/kg/injection, schedule: Q04DX003 (ip), vehicle: water 92 % of control | dose: 200.0 mg/kg/injection, schedule: Q04DX003 (ip), vehicle: water 87 % of control | dose: 400.0 mg/kg/injection, schedule: Q04DX003 (ip), vehicle: water 101 % of control

CCN(CC)Cc1cccc(Nc2cc(C)nc(/N=C(\N)Nc3ccc(Cl)c(Cl)c3)n2)c1
inactive: dose: 75.0 mg/kg/injection, schedule: Q01DX001 (ip), vehicle: other 98 % of control | dose: 150.0 mg/kg/injection, schedule: Q01DX001 (ip), vehicle: other 95 % of control | dose: 300.0 mg/kg/injection, schedule: Q01DX001 (ip), vehicle: other 95 % of control

CCCC[S][Pb]([c]1ccccc1)([c]1ccccc1)[c]1ccccc1
inactive: dose: 100.0 mg/kg/injection, schedule: Q01DX001 (ip), vehicle: Klucel (hydroxypropylcellulose) (HPC) 101 % of control | dose: 200.0 mg/kg/injection, schedule: Q01DX001 (ip), vehicle: Klucel (hydroxypropylcellulose) (HPC) 106 % of control

COC(=O)c1ccccc1C(=O)c1ccccc1
inactive: dose: 100.0 mg/kg/injection, schedule: Q04DX003 (ip), vehicle: carboxymethylcellulose (CMC) 101 % of control | dose: 200.0 mg/kg/injection, schedule: Q04DX003 (ip), vehicle: carboxymethylcellulose (CMC) 102 % of control | dose: 400.0 mg/kg/injection, schedule: Q04DX003 (ip), vehicle: carboxymethylcellulose (CMC) 96 % of control

CN(C)N=Nc1cn(C2OC(CO)C(O)C2O)c(=O)[nH]c1=O (centres undefined)
inactive: dose: 100.0 mg/kg/injection, schedule: Q01DX009 (ip), vehicle: saline 111 % of control | dose: 200.0 mg/kg/injection, schedule: Q01DX009 (ip), vehicle: saline 120 % of control

CC(=O)O/N=C1\C(C)=[N+]([O-])[N+]([O-])=C1c1ccccc1
inactive: dose: 50.0 mg/kg/injection, schedule: Q01DX009 (ip), vehicle: Klucel (hydroxypropylcellulose) (HPC) 98 % of control | [11] 87 % of control | [12] 90 % of control

O=C1CC2CCCC(C1)N2CC1COc2ccccc2O1 (centres undefined)
inactive: dose: 50.0 mg/kg/injection, schedule: Q04DX002 (ip), vehicle: Klucel (hydroxypropylcellulose) (HPC) 90 % of control | [14] 90 % of control | [15] 93 % of control

O=C(O)c1cc2oc3ccccc3c2cc1O
inactive: [11] 94 % of control | [16] 98 % of control | [12] 100 % of control | [17] 95 % of control | [18] 93 % of control

Cc1c(Cl)cccc1NC(=O)c1ccc(Cl)cc1Cl
inactive: [11] 92 % of control | [16] 92 % of control | [12] 94 % of control | [17] 95 % of control | [13] 91 % of control | [18] 93 % of control

COc1ccc(C[Si](C)C)cc1
inactive: [9] 93 % of control | [10] 98 % of control | dose: 400.0 mg/kg/injection, schedule: Q04DX003 (ip), vehicle: saline 94 % of control

Nc1c(Br)cc2c([nH]c(=O)c3cc(Br)ccc32)c1Br
inactive: dose: 100.0 mg/kg/injection, schedule: Q01DX001 (ip), vehicle: carboxymethylcellulose (CMC) 101 % of control | dose: 200.0 mg/kg/injection, schedule: Q01DX001 (ip), vehicle: carboxymethylcellulose (CMC) 104 % of control | dose: 400.0 mg/kg/injection, schedule: Q01DX001 (ip), vehicle: carboxymethylcellulose (CMC) 106 % of control
